Source: patent US6737383B1, “Herbicidal oxadiazolidines” (priority 1999, dated 2004)

How the values were obtained:
duck salad = assay: Test B flood test duck salad; assay type: in vivo, Heteranthera limosa; details: for Plant response rating, Ducksalad (0 to 10 scale, 0 is no effect, 10 is complete control): Rate 62 g/ha; for Plant response rating, Ducksalad (0 to 10 scale, 0 is no effect, 10 is complete control) / Ducksalad plant response rating (0 to 10 scale, 0 is no effect, 10 is complete control): visual evaluation after twelve to sixteen days; for Ducksalad plant response rating (0 to 10 scale, 0 is no effect, 10 is complete control): under heading Pre-emergence
How it was run: (§1)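 Plants were grown to the 2-leaf stage before treatment with test chemical, then held in a greenhouse for twelve to sixteen days. Injury was visually rated against untreated controls on a 0–10 scale, where 0 is no effect and 10 is complete control.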

smallflower flatsedge = assay: Test B flood test smallflower flatsedge; assay type: in vivo, Cyperus difformis; details: for Plant response rating, S. Flatsedge (0 to 10 scale, 0 is no effect, 10 is complete control): Rate 62 g/ha; for Plant response rating, S. Flatsedge (0 to 10 scale, 0 is no effect, 10 is complete control) / S. Flatsedge plant response rating (0 to 10 scale, 0 is no effect, 10 is complete control): visual evaluation after twelve to sixteen days; for S. Flatsedge plant response rating (0 to 10 scale, 0 is no effect, 10 is complete control): under heading Pre-emergence
How it was run: as §1

soybean = assay: Test B pre/postemergence soybean; assay type: in vivo, Glycine max
How it was run: (§2)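 Herbicidal effect was estimated by eye on a ten-point control scale after plants spent twelve to sixteen days in a greenhouse following soil or foliar treatment. Foliar sprays targeted plants at one to four leaves; all doses were formulated in a non-phytotoxic solvent with surfactant.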

velvetleaf = assay: Test B pre/postemergence velvetleaf; assay type: in vivo, Abutilon theophrasti
How it was run: as §2

[1] = Pre-emergence, Rate 1000 g/ha, scale 0 to 10 (0 no effect, 10 complete control)
[2] = Rate 125 g/ha, Pre-emergence, flood test species, scale 0 to 10 where 0 is no effect and 10 is complete control
[3] = Rate 250 g/ha, Pre-emergence, flood-test species, scale 0 to 10, 0 is no effect, 10 is complete control
[4] = Rate 500 g/ha, Pre-emergence, flood test species, scale 0 to 10 (0 no effect, 10 complete control)
[5] = Postemergence, Rate 1000 g/ha, scale 0 to 10 (0 no effect, 10 complete control)
[6] = Preemergence, Rate 250 g/ha, scale of 0 to 10 where 0 is no effect and 10 is complete control
[7] = Preemergence, Rate 500 g/ha, scale of 0 to 10 where 0 is no effect and 10 is complete control
[8] = Rate 125 g/ha, Postemergence, scale of 0 to 10 where 0 is no effect and 10 is complete control
[9] = Rate 250 g/ha, Postemergence, scale of 0 to 10 where 0 is no effect and 10 is complete control
[10] = Rate 1000 g/ha, Preemergence, scale 0 to 10 (0 no effect, 10 complete control)
[11] = flood test species, Pre-emergence
[12] = Rate 125 g/ha, flood test species
[13] = Rate 250 g/ha, Pre-emergence (flood test species), scale 0 to 10, 0 is no effect, 10 is complete control
[14] = Rate 500 g/ha, Pre-emergence section of Table B, 0 to 10 scale (0 no effect, 10 complete control)
[15] = Postemergence, Rate 62 g/ha, scale 0 to 10, 0 is no effect, 10 is complete control
[16] = Postemergence, Rate 125 g/ha, scale of 0 to 10 where 0 is no effect and 10 is complete control
[17] = Preemergence, Rate 62 g/ha, scale of 0 to 10 where 0 is no effect and 10 is complete control
[18] = Preemergence, Rate 125 g/ha, scale of 0 to 10 where 0 is no effect and 10 is complete control
[19] = Rate 500 g/ha, Postemergence, scale 0 to 10, 0 is no effect, 10 is complete control
[20] = Postemergence, Rate 250 g/ha, scale 0 to 10
[21] = Preemergence, Rate 250 g/ha, scale 0 to 10, 0 is no effect, 10 is complete control
[22] = Preemergence, Rate 500 g/ha, scale 0 to 10, 0 is no effect, 10 is complete control
[23] = Rate 62 g/ha, Postemergence, scale 0 to 10, 0 no effect, 10 complete control
[24] = Rate 125 g/ha, Postemergence, scale 0 to 10, 0 is no effect, 10 is complete control

CCOC(=O)C(C)N(C(=O)n1oc(=O)n(C(C)C)c1=O)c1ccc(F)cc1 (stereo not shown) [Compound 302]
Ducksalad plant response rating (duck salad; [1]): 0
Ducksalad plant response rating (duck salad; [2]): 0
Ducksalad plant response rating (duck salad; [3]): 0
Ducksalad plant response rating (duck salad; [4]): 0
S. Flatsedge plant response rating (smallflower flatsedge; [1]): 0
S. Flatsedge plant response rating (smallflower flatsedge; [2]): 0
S. Flatsedge plant response rating (smallflower flatsedge; [3]): 0
S. Flatsedge plant response rating (smallflower flatsedge; [4]): 0
Soybean plant response rating (soybean; [5]): 5
Soybean plant response rating (0 to 10 scale) (soybean; Preemergence, Rate 125 g/ha): 0
Soybean plant response rating (soybean; [6]): 0
Soybean plant response rating (soybean; [7]): 0
Soybean plant response rating (soybean; [8]): 2
Plant response rating, Soybean (soybean; [9]): 3
Plant response rating, Soybean (soybean; [10]): 0
Velvetleaf plant response rating (velvetleaf; [5]): 0
Velvetleaf plant response rating (0 to 10 scale) (velvetleaf; Preemergence, Rate 125 g/ha): 0
Velvetleaf plant response rating (velvetleaf; [6]): 0
Velvetleaf plant response rating (velvetleaf; [7]): 0
Velvetleaf plant response rating (velvetleaf; [8]): 0
Plant response rating, Velvetleaf (velvetleaf; [9]): 0
Plant response rating, Velvetleaf (velvetleaf; [10]): 4

CC(C)N(C(=O)n1oc(=O)n(CCCC#N)c1=O)c1ccc(F)cc1F [Compound 675]
Plant response rating, Ducksalad (0 to 10 scale, 0 is no effect, 10 is complete control) (duck salad; [11]): 0
Ducksalad plant response rating (0 to 10 scale, 0 is no effect, 10 is complete control) (duck salad; [12]): 0
Ducksalad plant response rating (duck salad; [13]): 0
Ducksalad plant response rating (duck salad; [14]): 0
Plant response rating, S. Flatsedge (0 to 10 scale, 0 is no effect, 10 is complete control) (smallflower flatsedge; [11]): 0
S. Flatsedge plant response rating (0 to 10 scale, 0 is no effect, 10 is complete control) (smallflower flatsedge; [12]): 0
S. Flatsedge plant response rating (smallflower flatsedge; [13]): 0
S. Flatsedge plant response rating (smallflower flatsedge; [14]): 0
Plant response rating, Soybean (soybean; [15]): 4
Soybean plant response rating (soybean; [16]): 5
Soybean plant response rating (soybean; [17]): 0
Plant response rating, Soybean (soybean; [18]): 0
Plant response rating, Soybean (soybean; [7]): 4
Soybean plant response rating (soybean; [19]): 5
Plant response rating, Velvetleaf (velvetleaf; [15]): 0
Velvetleaf plant response rating (velvetleaf; [16]): 2
Velvetleaf plant response rating (velvetleaf; [17]): 6
Plant response rating, Velvetleaf (velvetleaf; [18]): 7
Plant response rating, Velvetleaf (velvetleaf; [7]): 10
Velvetleaf plant response rating (velvetleaf; [19]): 8

CC[Si](C)(C)Cn1c(=O)on(C(=O)N(c2ccc(F)cc2)C(C)C)c1=O [Compound 459]
Plant response rating, Ducksalad (0 to 10 scale, 0 is no effect, 10 is complete control) (duck salad; [11]): 0
Ducksalad plant response rating (0 to 10 scale, 0 is no effect, 10 is complete control) (duck salad; [12]): 0
Ducksalad plant response rating (duck salad; [13]): 0
Ducksalad plant response rating (duck salad; [4]): 0
Plant response rating, S. Flatsedge (0 to 10 scale, 0 is no effect, 10 is complete control) (smallflower flatsedge; [11]): 0
S. Flatsedge plant response rating (0 to 10 scale, 0 is no effect, 10 is complete control) (smallflower flatsedge; [12]): 0
S. Flatsedge plant response rating (smallflower flatsedge; [13]): 0
S. Flatsedge plant response rating (smallflower flatsedge; [4]): 0
Soybean plant response rating (soybean; [20]): 6
Plant response rating, Soybean (soybean; [17]): 0
Plant response rating, Soybean (soybean; [18]): 0
Soybean plant response rating (soybean; [21]): 0
Soybean plant response rating (soybean; [22]): 0
Soybean plant response rating (soybean; [23]): 3
Soybean plant response rating (soybean; [24]): 3
Velvetleaf plant response rating (velvetleaf; [20]): 0
Plant response rating, Velvetleaf (velvetleaf; [17]): 0
Plant response rating, Velvetleaf (velvetleaf; [18]): 0
Velvetleaf plant response rating (velvetleaf; [21]): 0
Velvetleaf plant response rating (velvetleaf; [22]): 0
Velvetleaf plant response rating (velvetleaf; [23]): 0
Velvetleaf plant response rating (velvetleaf; [24]): 0
